Reference: patent US20250333410A1, “COMPOUND FOR INHIBITING OR DEGRADING BCL6 AND USE THEREOF IN PHARMACEUTICS” (XIZANG HAISCO PHARMACEUTICAL CO., LTD., priority 2022, published 2025)

Target: Bcl6 (Homo sapiens (Human), UniProt P41182)
Assay: Bcl-6 protein degradation experiment in Farage cells
Format: cell-based
Details: 24 hours
Protocol: 2. Bcl-6 Protein Degradation Experiment in Farage Cells
Farage cells purchased from ATCC were placed in an RPMI-1640 complete medium (containing 10% fetal bovine serum, 100 U/mL penicillin and 100 μg/mL streptomycin) and cultured at 37° C. and 5% CO2. The cells in the logarithmic growth phase were collected, and the cell suspension was adjusted to an appropriate density with the culture medium and added to a 6-well cell culture plate at a volume of 1 mL/well. The compounds to be tested were prepared to 2-fold the final concentration, 1 mL of the compounds at different concentrations were added to administration wells, a medium containing 0.2% DMSO was added to control wells, and the plate was incubated at 37° C. for 24 hours. The cells were collected into a 1.5 mL centrifuge tube, 25 μL of RIPA lysis buffer (containing 1× protease inhibitor cocktail) was added, and the cells were lysed on ice for 15 minutes and centrifuged at 12000 rpm/min at 4° C. for 10 minutes. The supernatant was collected and the protein content was determined using the BCA method. The protein sample to be tested was diluted to 0.8 mg/mL, Bcl6 was detected using a fully automated protein expression quantitative analyzer (ProteinSimple), and the internal reference protein was R-actin (both antibodies were from CST). The software (Compass for SW) of the fully automated protein expression quantitative analyzer was used to process the raw data and calculate the peak area and the Bcl6 expression rate relative to the control group. DC50 values were calculated using a four-parameter non-linear fitting model in Graphpad 8.3.0 software.

| Compound | DC50 |
| --- | --- |
| CC(=O)COc1cc2cc(Nc3nc(N4CCC(CN5CCN(c6cccc7c6n(C)c(=O)n7C6CCC(=O)NC6=O)CC5)CC4)ncc3Cl)ccc2n(C)c1=O (stereo not shown) [Compound 10] | < 10 nM |
| CNC(=O)COc1cc2cc(Nc3nc(N4CCN(CC5CCN(Cc6cccc7c6n(C)c(=O)n7C6CCC(=O)NC6=O)CC5)CC4)ncc3Cl)ccc2n(C)c1=O (stereo not shown) [Compound 12] | < 10 nM |
| CNC(=O)COc1cc2cc(Nc3nc(N4CCC(CN5CCN6c7ccc(C8CCC(=O)NC8=O)cc7CCC6C5)CC4)ncc3Cl)ccc2n(C2CC2)c1=O (stereo not shown) [Compound 51] | < 10 nM |
| CNC(=O)COc1cc2cc(Nc3nc(N4CCC(O[C@H]5C[C@H](N6CCN(c7ccc(C8CCC(=O)NC8=O)cc7)CC6)C5)CC4)ncc3Cl)ccc2n(C(C)C)c1=O (stereo partly shown) [Compound 95] | < 10 nM |
| CNC(=O)COc1cc2cc(Nc3nc(N4CCC(O[C@H]5C[C@H](N6CCN(c7ccc(C8CCC(=O)NC8=O)c(F)c7)CC6)C5)CC4)ncc3Cl)ccc2n(C(C)C)c1=O (stereo partly shown) [Compound 96] | < 10 nM |
| CNC(=O)COc1cc2cc(Nc3nc(N4CCC(N(C)C5CCN(c6cccc7c6n(C)c(=O)n7C6CCC(=O)NC6=O)CC5)CC4)ncc3Cl)ccc2n(C)c1=O (stereo not shown) [Trifluoroacetate of compound 11] | < 10 nM |
| CC(=O)COc1cc2cc(Nc3nc(N4CCC(CN5CCN(c6ccc(C7CCC(=O)NC7=O)cc6)CC5)CC4)ncc3Cl)ccc2n(C)c1=O (stereo not shown) [Trifluoroacetate of compound 13] | < 10 nM |
| CNC(=O)COc1cc2cc(Nc3nc(N4CCC(CN5CCN(c6ccc(C7CCC(=O)NC7=O)cc6)CC5)CC4)ncc3Cl)ccc2n(C)c1=O (stereo not shown) [Trifluoroacetate of compound 14] | < 10 nM |
| CNC(=O)COc1cc2cc(Nc3nc(N4CCN(c5ccc(C6CCC(=O)NC6=O)cc5)CC4)ncc3Cl)ccc2n(C)c1=O (stereo not shown) [Trifluoroacetate of compound 20] | < 10 nM |
| CNC(=O)COc1cc2cc(Nc3nc(N4CCN(CC5CCN(c6ccc(C7CCC(=O)NC7=O)cc6F)CC5)CC4)ncc3Cl)ccc2n(C)c1=O (stereo not shown) [Trifluoroacetate of compound 41] | < 10 nM |
| CNC(=O)COc1cc2cc(Nc3nc(N4CCN(CC5CCN(c6ccc(C7CCC(=O)NC7=O)cc6)CC5)CC4)ncc3Cl)ccc2n(C(C)C)c1=O (stereo not shown) [Trifluoroacetate of compound 42] | < 10 nM |
| C#CCn1c(=O)c(OCC(=O)NC)cc2cc(Nc3nc(N4CCN(CC5CCN(c6ccc(C7CCC(=O)NC7=O)c(F)c6)CC5)CC4)ncc3Cl)ccc21 (stereo not shown) [Trifluoroacetate of compound 52] | < 10 nM |
| CNC(=O)COc1cc2cc(Nc3nc(N4CCN(CC5CCN(c6ccc(C7CCC(=O)NC7=O)c(F)c6)CC5)CC4)ncc3Cl)ccc2n(C2CC2)c1=O (stereo not shown) [Trifluoroacetate of compound 53] | < 10 nM |
| CNC(=O)COc1cc2cc(Nc3nc(N4CCC(CN5CCN6c7cc(F)c(C8CCC(=O)NC8=O)cc7CC[C@@H]6C5)CC4)ncc3Cl)ccc2n(C(C)C)c1=O (stereo partly shown) [Trifluoroacetate of compound 56] | < 10 nM |
| CCn1c(=O)c(OCC(=O)NC)cc2cc(Nc3nc(N4CCN(CC5CCN(c6ccc(C7CCC(=O)NC7=O)c(F)c6)CC5)CC4)ncc3Cl)ccc21 (stereo not shown) [Trifluoroacetate of compound 68] | < 10 nM |
| CCn1c(=O)c(OCC(=O)NC)cc2cc(Nc3nc(N4CCN(CC5CCN(c6ccc(C7CCC(=O)NC7=O)cc6)CC5)CC4)ncc3Cl)ccc21 (stereo not shown) [Trifluoroacetate of compound 69] | < 10 nM |
| CNC(=O)COc1cc2cc(Nc3nc(N4CCC(O[C@H]5C[C@H](N6CCN7c8cc(F)c(C9CCC(=O)NC9=O)cc8CC[C@@H]7C6)C5)CC4)ncc3Cl)ccc2n(C(C)C)c1=O (stereo partly shown) [Trifluoroacetate of compound 70] | < 10 nM |
| [2H]C([2H])([2H])n1c(=O)c(OCC(=O)NC)cc2cc(Nc3nc(N4CCC(O[C@H]5C[C@H](N6CCN7c8cc(F)c(C9CCC(=O)NC9=O)cc8CC[C@@H]7C6)C5)CC4)ncc3Cl)ccc21 (stereo partly shown) [Trifluoroacetate of compound 90] | < 10 nM |
| [2H]C([2H])([2H])NC(=O)COc1cc2cc(Nc3nc(N4CCC(O[C@H]5C[C@H](N6CCN7c8cc(F)c(C9CCC(=O)NC9=O)cc8CC[C@@H]7C6)C5)CC4)ncc3Cl)ccc2n(C([2H])([2H])[2H])c1=O (stereo partly shown) [Trifluoroacetate of compound 91] | < 10 nM |
| [2H]C([2H])([2H])NC(=O)COc1cc2cc(Nc3nc(N4CCC(O[C@H]5C[C@H](N6CCN7c8cc(F)c(C9CCC(=O)NC9=O)cc8CC[C@@H]7C6)C5)CC4)ncc3Cl)ccc2n(C)c1=O (stereo partly shown) [Trifluoroacetate of compound 92] | < 10 nM |
| CNC(=O)COc1cc2cc(Nc3nc(N4CCC(F)(CN5CCN6c7cc(F)c(C8CCC(=O)NC8=O)cc7CC[C@H]6C5)CC4)ncc3Cl)ccc2n(C(C)C)c1=O (stereo partly shown) [Trifluoroacetate of compound 94] | < 10 nM |
| CNC(=O)COc1cc2cc(Nc3nc(N4CCC(F)(CN5CCN6c7cc(F)c(C8CCC(=O)NC8=O)cc7CC[C@@H]6C5)CC4)ncc3Cl)ccc2n(C(C)C)c1=O (stereo partly shown) [Trifluoroacetate of compound 98] | < 10 nM |
| CNC(=O)COc1cc2cc(Nc3nc(N4CC[C@H](O[C@H]5C[C@H](N6CCN7c8cc(F)c(C9CCC(=O)NC9=O)cc8CC[C@H]7C6)C5)[C@@H](F)C4)ncc3Cl)ccc2n(C(C)C)c1=O (stereo partly shown) [Trifluoroacetate of compound 109] | < 10 nM |

Results, then the molecule that gave them:

| DC50 | Compound |
| --- | --- |
| < 10 nM | CNC(=O)COc1cc2cc(Nc3nc(N4CCC(CN5CCN(c6cccc7c6n(C)c(=O)n7C6CCC(=O)NC6=O)CC5)CC4)ncc3Cl)ccc2n(C)c1=O (stereo not shown) [Compound 9] |
| < 10 nM | CC(=O)COc1cc2cc(Nc3nc(N4CCN(CC5CCN(c6cc(F)c(C7CCC(=O)NC7=O)c(F)c6)CC5)CC4)ncc3Cl)ccc2n(C)c1=O (stereo not shown) [Compound 22] |
| < 10 nM | CNC(=O)COc1cc2cc(Nc3nc(N4CCN(CC5CCN(c6ccc(C7CCC(=O)NC7=O)cn6)CC5)CC4)ncc3Cl)ccc2n(C)c1=O (stereo not shown) [Compound 39] |
| < 10 nM | [2H]C([2H])([2H])NC(=O)COc1cc2cc(Nc3nc(N4CCN(CC5CCN(c6ccc(C7CCC(=O)NC7=O)cc6)CC5)CC4)ncc3Cl)ccc2n(C)c1=O (stereo not shown) [Compound 47] |
| < 10 nM | C#CCn1c(=O)c(OCC(=O)NC)cc2cc(Nc3nc(N4CCC(CN5CCN6c7ccc(C8CCC(=O)NC8=O)cc7CCC6C5)CC4)ncc3Cl)ccc21 (stereo not shown) [Compound 50] |
| < 10 nM | CC(=O)COc1cc2cc(Nc3nc(N4CCC(N5CCN(c6ccc(NC7CCC(=O)NC7=O)cc6F)CC5)C(F)(F)C4)ncc3Cl)ccc2n(C)c1=O (stereo not shown) [Trifluoroacetate of compound 5] |
| < 10 nM | CNC(=O)COc1cc2cc(Nc3nc(N4CCC(N5CCN(c6ccc(NC7CCC(=O)NC7=O)cc6F)CC5)C(F)(F)C4)ncc3Cl)ccc2n(C)c1=O (stereo not shown) [Trifluoroacetate of compound 7] |
| < 10 nM | CC(=O)COc1cc2cc(Nc3nc(N4CCN(c5ccc(C6CCC(=O)NC6=O)cc5)CC4)ncc3Cl)ccc2n(C)c1=O (stereo not shown) [Trifluoroacetate of compound 17] |
| < 10 nM | CNC(=O)COc1cc2cc(Nc3nc(N4CCN(CC5CN(c6ccc(C7CCC(=O)NC7=O)cc6F)C5)CC4)ncc3Cl)ccc2n(C)c1=O (stereo not shown) [Trifluoroacetate of compound 40] |
| < 10 nM | CNC(=O)COc1cc2cc(Nc3nc(N4CCC(CN5CCN6c7ccc(C8CCC(=O)NC8=O)cc7CCC6C5)CC4)ncc3Cl)ccc2n(C(C)C)c1=O (stereo not shown) [Trifluoroacetate of compound 54] |
| < 10 nM | CNC(=O)COc1cc2cc(Nc3nc(N4CCN(CC5CCN(c6cccc(C7CCC(=O)NC7=O)c6)CC5)CC4)ncc3Cl)ccc2n(C)c1=O (stereo not shown) [Trifluoroacetate of compound 55] |
| < 10 nM | CCn1c(=O)c(OCC(=O)NC)cc2cc(Nc3nc(N4CCC(O[C@H]5C[C@H](N6CCN7c8cc(F)c(C9CCC(=O)NC9=O)cc8CC[C@H]7C6)C5)CC4)ncc3Cl)ccc21 (stereo partly shown) [Trifluoroacetate of compound 61] |
| < 10 nM | [2H]C([2H])([2H])NC(=O)COc1cc2cc(Nc3nc(N4CCC(O[C@H]5C[C@H](N6CCN7c8cc(F)c(C9CCC(=O)NC9=O)cc8CC[C@H]7C6)C5)CC4)ncc3Cl)ccc2n(C(C)C)c1=O (stereo partly shown) [Trifluoroacetate of compound 84] |
| < 10 nM | [2H]C([2H])([2H])NC(=O)COc1cc2cc(Nc3nc(N4CCC(CN5CCN6c7cc(F)c(C8CCC(=O)NC8=O)cc7CC[C@H]6C5)CC4)ncc3Cl)ccc2n(C(C)C)c1=O (stereo partly shown) [Trifluoroacetate of compound 85] |
| < 10 nM | [2H]C([2H])([2H])NC(=O)COc1cc2cc(Nc3nc(N4CCC(O[C@H]5C[C@H](N6CCN7c8cc(F)c(C9CCC(=O)NC9=O)cc8CC[C@@H]7C6)C5)CC4)ncc3Cl)ccc2n(C(C)C)c1=O (stereo partly shown) [Trifluoroacetate of compound 93] |

Test system: not listed separately
Assay: Pharmacokinetic test in mice
Format: in vivo, ICR mice
Details: male, ICR, mouse, po; mice plasma, i.g. 5 mg/kg
Protocol: 3. Pharmacokinetic Test in Mice
1.1 Experimental animal: male ICR mice, 25-30 g, 6 mice/compound, purchased from Chengdu Ddossy Experimental Animals Co., Ltd.
1.2 Experimental design: on the day of the experiment, the ICR mice were randomly grouped according to their body weights. The animals were fasted but with water available for 12 to 14 h one day before the administration, and were fed 4 h after the administration.

| AUC(0-t) | Compound |
| --- | --- |
| < 100 ng·h/mL | CNC(=O)COc1cc2cc(Nc3nc(N4CCN(CC5CCN(c6cccc7c6C(=O)N(C6CCC(=O)NC6=O)C7=O)CC5)CC4)ncc3Cl)ccc2n(C)c1=O (stereo not shown) [Control compound 1, reference compound] |
| > 1000 ng·h/mL | CC(=O)COc1cc2cc(Nc3nc(N4CCC(CN5CCN(c6ccc(C7CCC(=O)NC7=O)cc6)CC5)CC4)ncc3Cl)ccc2n(C)c1=O (stereo not shown) [Trifluoroacetate of compound 13] |
| > 1000 ng·h/mL | CNC(=O)COc1cc2cc(Nc3nc(N4CCC(CN5CCN(c6ccc(C7CCC(=O)NC7=O)cc6)CC5)CC4)ncc3Cl)ccc2n(C)c1=O (stereo not shown) [Trifluoroacetate of compound 14] |
| > 1000 ng·h/mL | CNC(=O)COc1cc2cc(Nc3nc(N4CCC(CN5CCN6c7cc(F)c(C8CCC(=O)NC8=O)cc7CC[C@@H]6C5)CC4)ncc3Cl)ccc2n(C(C)C)c1=O (stereo partly shown) [Trifluoroacetate of compound 56] |

Same assay, conditions: mice, i.g. 5 mg/kg

| F | Compound |
| --- | --- |
| <5% | CNC(=O)COc1cc2cc(Nc3nc(N4CCN(CC5CCN(c6cccc7c6C(=O)N(C6CCC(=O)NC6=O)C7=O)CC5)CC4)ncc3Cl)ccc2n(C)c1=O (stereo not shown) [Control compound 1, reference compound] |
